In US7148194B2, “Method to increase fibronectin” (Kimberly-Clark Worldwide, Inc., priority 2002, dated 2006):
“And” between values parts separate entries of the source, which are not always exact repeats. Identical values can stand only once.

Assays:
[1] = biological target: T1, MMP-9 (Homo sapiens, UniProt P14780); test: enzymatic hydrolysis of fluoresceinated collagen by MMP-9; format: biochemical; details: extended time assay, FIG. 8
T1 construct: Active MMP-9 enzyme was purchased from Calbiochem; purchased Calbiochem
T1 sequence (P14780 107-707 limits assumed): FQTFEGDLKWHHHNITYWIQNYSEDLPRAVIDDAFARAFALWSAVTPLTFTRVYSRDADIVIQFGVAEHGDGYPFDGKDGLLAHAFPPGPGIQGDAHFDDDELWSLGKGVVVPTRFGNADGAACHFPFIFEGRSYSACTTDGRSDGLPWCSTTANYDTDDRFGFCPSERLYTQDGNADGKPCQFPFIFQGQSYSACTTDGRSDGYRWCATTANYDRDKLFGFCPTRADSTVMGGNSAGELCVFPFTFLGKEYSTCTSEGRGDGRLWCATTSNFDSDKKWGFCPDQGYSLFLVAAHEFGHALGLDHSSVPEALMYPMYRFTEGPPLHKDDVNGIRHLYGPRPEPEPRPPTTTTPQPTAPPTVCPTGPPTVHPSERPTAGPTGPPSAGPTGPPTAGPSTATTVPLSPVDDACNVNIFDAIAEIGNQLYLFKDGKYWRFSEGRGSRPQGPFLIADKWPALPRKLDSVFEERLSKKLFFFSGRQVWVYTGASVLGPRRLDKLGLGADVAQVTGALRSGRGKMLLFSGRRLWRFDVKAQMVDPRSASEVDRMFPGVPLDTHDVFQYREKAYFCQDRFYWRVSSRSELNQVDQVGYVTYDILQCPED
Protocol: Two enzymatic assays were performed. The first assay measured the enzymatic hydrolysis of fluoresceinated collagen by MMP-9 as a function of time. […] The protein mixture was added to the collagen substrate, and was quickly mixed. Fluorescence emission intensity at 520 nm was measured as a function of time (excitation wavelength 495 nm) in a Shimadzu RF5301 fluorometer (Lakowicz, 1983). The fluorescein release assay was used to determine the inhibitory constant (Ki) of the peptide inhibitor ([I]) according to Segel (1993) via the use of Dixon plots (1/v vs. [I]), such that: slope=Km/(Vmax Ki [S]) (1) where Km is the Michaelis constant, Vmax is the reaction maximum velocity, and [S] is the substrate concentration.

[2] = system: normal human dermal fibroblasts (NHDF); test: NHDF migration assay, 48-well chemotaxis chamber; format: cell-based
Protocol: Normal, human dermal fibroblasts (NHDF) were obtained from Biowhittaker, (Walkersville, Md.) and propagated in T75 flasks in FBM media (500 mL, Biowhittaker) containing insulin, hFGF-b, GA-1000, and fetal bovine serum (10 mL) for up to 12 passages. For the migration assay, NHDF were washed once with 10 mL of Hank's buffered saline solution (HBSS). Three milliliters of trypsin (0.25%) in EDTA were added to the T75 flask for no more than five minutes to remove NHDF from the flask. NHDF in trypsin solution were added to 7 mL of FBM with no supplements added. NHDF were centrifuged for 5 minutes, and the supernatant was removed. NHDF were resuspended in 10 mL of FBM for counting. NHDF were centrifuged for another 5 minutes, and the supernatant was removed. NHDF were resuspended at 1×10^6 cells per mL in FBM without supplements. It was important to use FBM media only in migration assays because the complete media contains fibroblast growth factor and serum, both of which will trigger migration of fibroblasts.
(§1) Peptides were synthesized and purified by the Microchemical Facility at Emory University or by SigmaGenesis. All peptides were analyzed by mass spectrometry after HPLC to assess purity. Approximately 0.5–2.0 milligrams of peptide were used to make fresh stock solutions (5 mg/mL in PBS) for each migration assay. The peptide stock solutions in PBS were used to make more dilute solutions (1 mg/mL, 100 μg/mL, 10 μg/mL, 1 μg/mL, 100 ng/mL, 10 ng/mL) in FBM (without supplements) for the migration assays.
Polyvinylpyrrolidone-free polycarbonate membranes with […] pores (Neuroprobe, Inc., Gaithersburg, Md.) were washed with 90% ethanol for 15 minutes and rinsed four times with deionized water. Membranes were then placed into a glass dish containing an aqueous solution of 5 μg/mL gelatin. The glass dish was placed in to a water bath at about 90° C. for one hour. Membranes were removed from the gelatin solution and were allowed to dry for one hour in the 37° C. incubator.
A 48-well chemotaxis chamber (Neuroprobe, Inc., Gaithersburg, Md.) (see FIG. 20) was used for the migration assays. Twenty-eight μL of each test solution were added to the bottom wells of the chamber in quadruplicate. A gelatin-treated membrane was placed carefully on top of the bottom wells. The gasket and top part of chamber were then placed carefully on top of the membrane. The apparatus was tightened using six thumbscrews. A solution of NHDF containing an estimated cell density (2×10^5 cells per mL) was made by adding 320 μL of the 1×10^6 cells per mL solution to 1.28 mL of FBM (no supplements). Fifty microliters of the 2×10^5 cells per mL NHDF solution were added to the top part of each well in the chamber. The chamber was placed in the incubator at 37° C./5% CO2 for three hours. The chamber was removed, the thumbscrews were removed, and the chamber was turned upside down on a paper towel. […] The membrane was carefully removed. […] The membrane was fixed with methanol and stained using the Diff-Quik Staining Solutions I and II. The nuclei of NHDF are stained purple. The membrane was mounted on a glass slide using cedarwood immersion oil and a cover slip. […] The average number of migrated NHDF in the negative control was subtracted from the experimental (peptide) data and positive control data.

[3] = system: neutrophils; test: neutrophil migration assay, transwell plate; format: cell-based, human; details: for Percent Neutrophil Migration exp. 1: 0.4% HSA; for Percent Neutrophil Migration exp. 2: 0.04% HSA
Protocol: as §1, with “HBSS/HSA)” for “PBS)”, “solutions” for “solutions in PBS”, “ng/mL, and” for “ng/mL,”, “HBSS/HSA” for “FBM (without supplements)”, “the” for “the migration”
Neutrophils were isolated from human blood (collected in Vacutainer™ tubes containing EDTA) by layering the blood/EDTA mixture (about 20 mL) on top of two layers of Histopaque™ 1119 (bottom layer, 18 mL) and 1077 (top layer, 7 mL) in 50 mL Falcon tubes. The tubes were centrifuged at 1800 rpm for 30 minutes (no brake). Four layers appeared in the tubes after the spin (from top to bottom layers): plasma, 1077, 1119, and red blood cells. The buffy coat between the plasma and 1077 layers contained lymphocytes, monocytes, and some platelets. The plasma layer, the buffy coat, and most of the 1077 layer was removed and discarded. The 1119 layer that contained the neutrophils was removed and was placed into a clean 50 mL tube. Dulbecco's Phosphate Buffered Saline (DPBS) was added to bring the volume to 50 mL. The cells were centrifuged for 15 minutes at 2100 rpm. The cells were resuspended in 10 mL of DPBS, transferred to 15 mL tubes, and centrifuged again for 10 minutes at 2000 rpm. This process was repeated to wash the cells a second time. After the supernatant was removed, the red blood cells were lysed by adding 6 mL of cold sterile water to each 15 mL of supernatant. Cells were mixed in the water for only 30 seconds. Six mL of cold 2% sterile saline was then added. Cells were centrifuged again for 10 minutes at 2000 rpm. The red supernatant (containing hemoglobin from red blood cells) was removed. This process of red blood cell lysis was repeated two more times to remove all of the red blood cells. After most of the red blood cells were removed, neutrophils were resuspended in 10 mL of HBSS/HSA for counting with trypan blue.
A neutrophil migration assay was performed in duplicate using a 24-well transwell plate (3 μm pore size for membrane). Transwell membranes were pre-moistened with 20–40 μL of HBSS/HSA (0.04–0.4%). Chemotactic solutions (500 μL) were added to the bottom of each well. […] Transwells were then placed into the chemotactic solutions. The plate was placed into the incubator (37° C., 5% CO2) for one hour. Cells that migrated through the membrane were counted using trypan blue.
In the neutrophil migration experiments, neutrophils that were isolated were approximately 95% viable. […]

## CC(C)[C@H](NC(=O)[C@H](CC(=O)O)NC(=O)[C@@H]1CCCN1C(=O)[C@H](CC(N)=O)NC(=O)CNC(=O)[C@H](CS)NC(=O)[C@H](CCCNC(=N)N)NC(=O)[C@@H]1CCCN1)C(=O)N[C@@H](C)C(=O)N[C@@H](CC(N)=O)C(=O)N[C@@H](Cc1ccc(O)cc1)C(=O)N[C@@H](CC(N)=O)C(=O)N[C@@H](Cc1ccccc1)C(=O)N[C@@H](Cc1ccccc1)C(=O)N1CCC[C@H]1C(=O)N[C@@H](CCCNC(=N)N)C(=O)N[C@@H](CCCCN)C(=O)N1CCC[C@H]1C(=O)N[C@@H](CCCCN)C(=O)O [Peptide 19-mer]
[1]
  time over which MMP-9 catalyzed hydrolysis of collagen is effectively inhibited: > 1000 min
[2]; 100 μg/mL peptide
  NHDF migration, percent of the plasma fibronectin positive control: 46±3% and 46%±3%
[2]; 1000 μg/mL peptide
  NHDF migration, percent of the plasma fibronectin positive control: 55±3% and 55%±3%
[2]; concentrations below 100 μg/mL
  NHDF migration, percent of the plasma fibronectin positive control: about 20%
[3]; 1 μg/mL
  Percent Neutrophil Migration exp. 1: 32%
[3]; 10 μg/mL
  Percent Neutrophil Migration exp. 1: 22%
[3]; 100 μg/mL
  Percent Neutrophil Migration exp. 2: 0%
  Percent Neutrophil Migration exp. 1: 29%
[3]; 1 mg/mL to 1 μg/mL
  effect on neutrophil migration: did not have an effect on neutrophil migration
[3]; 1 mg/mL
  Percent Neutrophil Migration exp. 2: 4%
  Percent Neutrophil Migration exp. 1: 23%
